Measurements from publication PMC10327353 (Breast Cancer Research : BCR, 2023).

Test: Phase 1 study: safety and tolerability
Assay type: in vivo
Experimental: The maximum tolerated dose (MTD) of DZD1516 was defined based on safety data and the Bayesian optimal interval (BOIN) design (Additional file 1). The definition of DLT is provided in Additional file 1.
The AE grading was assessed according to the NCI-Common Terminology Criteria for Adverse Events (CTCAE) (version 5.0) and was monitored until 28 days after the last dose.
Eligible patients received single oral dosing of DZD1516 on Cycle 0 Day 1 (C0D1), followed by a 7-day washout. Twice daily oral dosing (bid) of DZD1516 was commenced from C1D1 in a continuous 21-day cycle until disease progression, unacceptable toxicity, or withdrawal of consent. All doses were taken under fed conditions (within 30 minutes after a meal).
Planned dosing consisted of 25, 50, 100, 200, 300, and 400 mg. Each dose escalation cohort will comprise a minimum of three and a maximum of six evaluable patients (except only one patient in the starting dose cohort). The maximum tolerated dose of DZD1516 was defined according to safety data and the Bayesian optimal interval (BOIN) design. Dose escalation/de-escalation rule with target toxicity rate for the MTD is 0.30 with interval of (0.20, 0.33).
DLTs were any adverse event (AE) not clearly attributable to the patient’s disease, including ≥ grade 4 hematological toxicities present for ≥ 4 days, grade 3 thrombocytopenia with bleeding, or grade 4 thrombocytopenia lasting for > 5 days, ≥ grade 3 non-hematological toxicities that is dose-limiting in the judgment of the investigators. Any other toxicity that is greater than that at baseline, is clinically significant or unacceptable, and is judged to be a DLT by the SRC. Exceptions included alopecia of any grade and isolated grade 3 laboratory change without clinical sequelae or clinical significance.
Safety evaluations were conducted at screening, on Day 1, 8, and 15 of Cycle 1, on Day 1 of each subsequent treatment cycle, at the end-of-treatment visit, and clinically indicated. Safety assessments included clinical laboratory measurements (hematology, chemistry, coagulation, and urinalysis), electrocardiogram (ECG), Echocardiogram/MUGA scan, ECOG performance status, vital signs, and physical examinations.

COc1cc(O[C@H]2CCN(C)CC2(F)F)c2c(Nc3ccc(Oc4ccn5ncnc5c4)c(C)c3)ncnc2c1 [DZD1516]
Alanine aminotransferase increased, Any Grade (25 mg (N = 1)): 0 (0.0) n (%) | Alanine aminotransferase increased, ≥ Grade 3 (25 mg (N = 1)): 0 (0.0) n (%) | Anemia, Any Grade (25 mg (N = 1)): 0 (0.0) n (%) | Anemia, ≥ Grade 3 (25 mg (N = 1)): 0 (0.0) n (%) | Any TEAE: Grade 3 (25 mg (N = 1)): 0 (0.0) n (%) | Any TEAE: Leading to death (25 mg (N = 1)): 0 (0.0) n (%) | Any TEAE: Leading to dose reduction (25 mg (N = 1)): 0 (0.0) n (%) | Any TEAE: Leading to treatment discontinuation (25 mg (N = 1)): 0 (0.0) n (%) | Any TEAE: Leading to treatment interruption (25 mg (N = 1)): 0 (0.0) n (%) | Any TEAE: SAE (25 mg (N = 1)): 0 (0.0) n (%) | Aspartate aminotransferase increased, Any Grade (25 mg (N = 1)): 0 (0.0) n (%) | Aspartate aminotransferase increased, ≥ Grade 3 (25 mg (N = 1)): 0 (0.0) n (%) | Blood and lymphatic system disorders, Any Grade (25 mg (N = 1)): 0 (0.0) n (%) | Blood and lymphatic system disorders, ≥ Grade 3 (25 mg (N = 1)): 0 (0.0) n (%) | Blood bilirubin increased, Any Grade (25 mg (N = 1)): 1 (100.0) n (%) | Blood bilirubin increased, ≥ Grade 3 (25 mg (N = 1)): 0 (0.0) n (%) | Cardiac disorders, Any Grade (25 mg (N = 1)): 0 (0.0) n (%) | Cardiac disorders, ≥ Grade 3 (25 mg (N = 1)): 0 (0.0) n (%) | Constipation, Any Grade (25 mg (N = 1)): 0 (0.0) n (%) | Constipation, ≥ Grade 3 (25 mg (N = 1)): 0 (0.0) n (%) | Decreased appetite, Any Grade (25 mg (N = 1)): 0 (0.0) n (%) | Decreased appetite, ≥ Grade 3 (25 mg (N = 1)): 0 (0.0) n (%) | Dizziness, Any Grade (25 mg (N = 1)): 0 (0.0) n (%) | Dizziness, ≥ Grade 3 (25 mg (N = 1)): 0 (0.0) n (%) | Drug-related TEAE: Grade 3 (25 mg (N = 1)): 0 (0.0) n (%) | Drug-related TEAE: Leading to death (25 mg (N = 1)): 0 (0.0) n (%) | Drug-related TEAE: Leading to dose reduction (25 mg (N = 1)): 0 (0.0) n (%) | Drug-related TEAE: Leading to treatment discontinuation (25 mg (N = 1)): 0 (0.0) n (%) | Drug-related TEAE: Leading to treatment interruption (25 mg (N = 1)): 0 (0.0) n (%) | Drug-related TEAE: SAE (25 mg (N = 1)): 0 (0.0) n (%) | Fatigue, Any Grade (25 mg (N = 1)): 0 (0.0) n (%) | Fatigue, ≥ Grade 3 (25 mg (N = 1)): 0 (0.0) n (%) | Gastrointestinal disorders, Any Grade (25 mg (N = 1)): 0 (0.0) n (%) | Gastrointestinal disorders, ≥ Grade 3 (25 mg (N = 1)): 0 (0.0) n (%) | General disorders and administration site conditions, Any Grade (25 mg (N = 1)): 0 (0.0) n (%) | General disorders and administration site conditions, ≥ Grade 3 (25 mg (N = 1)): 0 (0.0) n (%) | Headache, Any Grade (25 mg (N = 1)): 0 (0.0) n (%) | Headache, ≥ Grade 3 (25 mg (N = 1)): 0 (0.0) n (%) | Hemoglobin decreased, Any Grade (25 mg (N = 1)): 0 (0.0) n (%) | Hemoglobin decreased, ≥ Grade 3 (25 mg (N = 1)): 0 (0.0) n (%) | Investigations, Any Grade (25 mg (N = 1)): 1 (100.0) n (%) | Investigations, ≥ Grade 3 (25 mg (N = 1)): 0 (0.0) n (%) | Lipase increased, Any Grade (25 mg (N = 1)): 0 (0.0) n (%) | Lipase increased, ≥ Grade 3 (25 mg (N = 1)): 0 (0.0) n (%) | Malaise, Any Grade (25 mg (N = 1)): 0 (0.0) n (%) | Malaise, ≥ Grade 3 (25 mg (N = 1)): 0 (0.0) n (%) | Metabolism and nutrition disorders, Any Grade (25 mg (N = 1)): 0 (0.0) n (%) | Metabolism and nutrition disorders, ≥ Grade 3 (25 mg (N = 1)): 0 (0.0) n (%) | Musculoskeletal and connective tissue disorders, Any Grade (25 mg (N = 1)): 0 (0.0) n (%) | Musculoskeletal and connective tissue disorders, ≥ Grade 3 (25 mg (N = 1)): 0 (0.0) n (%) | Nausea, Any Grade (25 mg (N = 1)): 0 (0.0) n (%) | Nausea, ≥ Grade 3 (25 mg (N = 1)): 0 (0.0) n (%) | Nervous system disorders, Any Grade (25 mg (N = 1)): 0 (0.0) n (%) | Nervous system disorders, ≥ Grade 3 (25 mg (N = 1)): 0 (0.0) n (%) | Participants with any TEAE, Any Grade (25 mg (N = 1)): 1 (100.0) n (%) | Participants with any TEAE, ≥ Grade 3 (25 mg (N = 1)): 0 (0.0) n (%) | Platelet count decreased, Any Grade (25 mg (N = 1)): 0 (0.0) n (%) | Platelet count decreased, ≥ Grade 3 (25 mg (N = 1)): 0 (0.0) n (%) | Proteinuria, Any Grade (25 mg (N = 1)): 0 (0.0) n (%) | Proteinuria, ≥ Grade 3 (25 mg (N = 1)): 0 (0.0) n (%) | Renal and urinary disorders, Any Grade (25 mg (N = 1)): 0 (0.0) n (%) | Renal and urinary disorders, ≥ Grade 3 (25 mg (N = 1)): 0 (0.0) n (%) | Subjects with any TEAE (25 mg (N = 1)): 1 (100.0) n (%) | Subjects with any drug-related TEAE (25 mg (N = 1)): 1 (100.0) n (%) | Vomiting, Any Grade (25 mg (N = 1)): 0 (0.0) n (%) | Vomiting, ≥ Grade 3 (25 mg (N = 1)): 0 (0.0) n (%) | White blood cell count decreased, Any Grade (25 mg (N = 1)): 0 (0.0) n (%) | White blood cell count decreased, ≥ Grade 3 (25 mg (N = 1)): 0 (0.0) n (%) | Alanine aminotransferase increased, Any Grade (50 mg (N = 4)): 1 (25.0) n (%) | Alanine aminotransferase increased, ≥ Grade 3 (50 mg (N = 4)): 0 (0.0) n (%) | Anemia, Any Grade (50 mg (N = 4)): 0 (0.0) n (%) | Anemia, ≥ Grade 3 (50 mg (N = 4)): 0 (0.0) n (%) | Any TEAE: Grade 3 (50 mg (N = 4)): 0 (0.0) n (%) | Any TEAE: Leading to death (50 mg (N = 4)): 0 (0.0) n (%) | Any TEAE: Leading to dose reduction (50 mg (N = 4)): 0 (0.0) n (%) | Any TEAE: Leading to treatment discontinuation (50 mg (N = 4)): 0 (0.0) n (%) | Any TEAE: Leading to treatment interruption (50 mg (N = 4)): 0 (0.0) n (%) | Any TEAE: SAE (50 mg (N = 4)): 0 (0.0) n (%) | Aspartate aminotransferase increased, Any Grade (50 mg (N = 4)): 1 (25.0) n (%) | Aspartate aminotransferase increased, ≥ Grade 3 (50 mg (N = 4)): 0 (0.0) n (%) | Blood and lymphatic system disorders, Any Grade (50 mg (N = 4)): 0 (0.0) n (%) | Blood and lymphatic system disorders, ≥ Grade 3 (50 mg (N = 4)): 0 (0.0) n (%) | Blood bilirubin increased, Any Grade (50 mg (N = 4)): 0 (0.0) n (%) | Blood bilirubin increased, ≥ Grade 3 (50 mg (N = 4)): 0 (0.0) n (%) | Cardiac disorders, Any Grade (50 mg (N = 4)): 0 (0.0) n (%) | Cardiac disorders, ≥ Grade 3 (50 mg (N = 4)): 0 (0.0) n (%) | Constipation, Any Grade (50 mg (N = 4)): 0 (0.0) n (%) | Constipation, ≥ Grade 3 (50 mg (N = 4)): 0 (0.0) n (%) | Decreased appetite, Any Grade (50 mg (N = 4)): 0 (0.0) n (%) | Decreased appetite, ≥ Grade 3 (50 mg (N = 4)): 0 (0.0) n (%) | Dizziness, Any Grade (50 mg (N = 4)): 0 (0.0) n (%) | Dizziness, ≥ Grade 3 (50 mg (N = 4)): 0 (0.0) n (%) | Drug-related TEAE: Grade 3 (50 mg (N = 4)): 0 (0.0) n (%) | Drug-related TEAE: Leading to death (50 mg (N = 4)): 0 (0.0) n (%) | Drug-related TEAE: Leading to dose reduction (50 mg (N = 4)): 0 (0.0) n (%) | Drug-related TEAE: Leading to treatment discontinuation (50 mg (N = 4)): 0 (0.0) n (%) | Drug-related TEAE: Leading to treatment interruption (50 mg (N = 4)): 0 (0.0) n (%) | Drug-related TEAE: SAE (50 mg (N = 4)): 0 (0.0) n (%) | Fatigue, Any Grade (50 mg (N = 4)): 0 (0.0) n (%) | Fatigue, ≥ Grade 3 (50 mg (N = 4)): 0 (0.0) n (%) | Gastrointestinal disorders, Any Grade (50 mg (N = 4)): 0 (0.0) n (%) | Gastrointestinal disorders, ≥ Grade 3 (50 mg (N = 4)): 0 (0.0) n (%) | General disorders and administration site conditions, Any Grade (50 mg (N = 4)): 0 (0.0) n (%) | General disorders and administration site conditions, ≥ Grade 3 (50 mg (N = 4)): 0 (0.0) n (%) | Headache, Any Grade (50 mg (N = 4)): 1 (25.0) n (%) | Headache, ≥ Grade 3 (50 mg (N = 4)): 0 (0.0) n (%) | Hemoglobin decreased, Any Grade (50 mg (N = 4)): 2 (50.0) n (%) | Hemoglobin decreased, ≥ Grade 3 (50 mg (N = 4)): 0 (0.0) n (%) | Investigations, Any Grade (50 mg (N = 4)): 3 (75.0) n (%) | Investigations, ≥ Grade 3 (50 mg (N = 4)): 0 (0.0) n (%) | Lipase increased, Any Grade (50 mg (N = 4)): 2 (50.0) n (%) | Lipase increased, ≥ Grade 3 (50 mg (N = 4)): 0 (0.0) n (%) | Malaise, Any Grade (50 mg (N = 4)): 0 (0.0) n (%) | Malaise, ≥ Grade 3 (50 mg (N = 4)): 0 (0.0) n (%) | Metabolism and nutrition disorders, Any Grade (50 mg (N = 4)): 1 (25.0) n (%) | Metabolism and nutrition disorders, ≥ Grade 3 (50 mg (N = 4)): 0 (0.0) n (%) | Musculoskeletal and connective tissue disorders, Any Grade (50 mg (N = 4)): 1 (25.0) n (%) | Musculoskeletal and connective tissue disorders, ≥ Grade 3 (50 mg (N = 4)): 0 (0.0) n (%) | Nausea, Any Grade (50 mg (N = 4)): 0 (0.0) n (%) | Nausea, ≥ Grade 3 (50 mg (N = 4)): 0 (0.0) n (%)
